Measurements from patent US11446287B2, “Compounds and methods for EP300 or CBP modulation and indications therefor” (Opna Immuno-Oncology SA, priority 2019, dated 2022).

Target: T1, Recombinant human EP300 containing the bromodomain (EP300-BD (1040-1161)) (Homo sapiens, UniProt Q09472)
T1 construct: Recombinant human EP300 bromodomain (EP300-BD (1040-1161)); made in house; host or cells: E. coli BL21-CodonPlus (DE3), modified pET vector
T1 sequence (Q09472 1040-1161): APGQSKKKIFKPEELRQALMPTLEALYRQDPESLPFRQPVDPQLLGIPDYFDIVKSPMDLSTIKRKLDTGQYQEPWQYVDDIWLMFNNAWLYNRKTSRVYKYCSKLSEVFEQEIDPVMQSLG
Assay: EP300 Alphascreen binding assay
Outline: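 Displacement of a biotinylated acetyl-K56 histone H3 peptide from the N-His bromodomain construct (1040-1161) measured by AlphaScreen proximity, beads at 7.5 μg/ml final, read 60 min after addition. Protein, peptide and compound first incubated 1 h at room temperature, pH 7.5 HEPES buffer; IC50 by four-parameter logistic fit.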

Row | SMILES | IC50
1 | Cc1noc(C)c1-c1cnc2c(C(=O)C3CC3)c(O)n(-c3ccnc(C(=O)O)c3)c2c1 [P-0084, 4-(3-(cyclopropanecarbonyl)-6-(3,5-dimethylisoxazol-4-yl)-2-hydroxy-1H-pyrrolo[3,2-b]pyridin-1-yl)picolinic acid] | 0.1 to 1000 nM
2 | Cc1noc(C)c1-c1cnc2c(c1)c(-c1cccc(C(=O)O)c1)cn2C(=O)c1ccccc1 [P-0085, 3-(1-benzoyl-5-(3,5-dimethylisoxazol-4-yl)-1H-pyrrolo[2,3-b]pyridin-3-yl)benzoic acid] | 0.1 to 1000 nM
3 | Cc1noc(C)c1-c1cnc2c(CC3CCC3)cn(-c3c(C(=O)O)ccc(Br)c3F)c2c1 [P-0086, 4-bromo-2-(3-(cyclobutylmethyl)-6-(3,5-dimethylisoxazol-4-yl)-1H-pyrrolo[3,2-b]pyridin-1-yl)-3-fluorobenzoic acid] | 0.1 to 1000 nM
4 | COc1c(-n2cc(CC3CCC3)c3ncc(-c4c(C)noc4C)cc32)ccc(C(=O)O)c1F [P-0087, 4-(3-(cyclobutylmethyl)-6-(3,5-dimethylisoxazol-4-yl)-1H-pyrrolo[3,2-b]pyridin-1-yl)-2-fluoro-3-methoxybenzoic acid] | 0.1 to 1000 nM
5 | Cc1noc(C)c1-c1cnc2c(C(=O)c3cccc(Cl)c3)cn(-c3ccnc(C(=O)O)c3)c2c1 [P-0088, 4-(3-(3-chlorobenzoyl)-6-(3,5-dimethylisoxazol-4-yl)-1H-pyrrolo[3,2-b]pyridin-1-yl)picolinic acid] | 0.1 to 1000 nM
6 | Cc1noc(C)c1-c1cnc2c(C(=O)c3ccccc3Cl)cn(-c3ccnc(C(=O)O)c3)c2c1 [P-0089, 4-(3-(2-chlorobenzoyl)-6-(3,5-dimethylisoxazol-4-yl)-1H-pyrrolo[3,2-b]pyridin-1-yl)picolinic acid] | 0.1 to 1000 nM
7 | Cc1noc(C)c1-c1cnc2c(Cc3cccc(Cl)c3)cn(-c3ccnc(C(=O)O)c3)c2c1 [P-0090, 4-(3-(3-chlorobenzyl)-6-(3,5-dimethylisoxazol-4-yl)-1H-pyrrolo[3,2-b]pyridin-1-yl)picolinic acid] | 0.1 to 1000 nM
8 | Cc1noc(C)c1-c1cnc2c(Cc3ccccc3Cl)cn(-c3ccnc(C(=O)O)c3)c2c1 [P-0091, 4-(3-(2-chlorobenzyl)-6-(3,5-dimethylisoxazol-4-yl)-1H-pyrrolo[3,2-b]pyridin-1-yl)picolinic acid] | 0.1 to 1000 nM
9 | Cc1noc(C)c1-c1cnc2c(c1)c(-c1cccc(C(=O)NS(C)(=O)=O)c1)cn2Cc1ccccc1 [P-0092, 3-(1-benzyl-5-(3,5-dimethylisoxazol-4-yl)-1H-pyrrolo[2,3-b]pyridin-3-yl)-N-(methylsulfonyl)benzamide] | 0.1 to 1000 nM
10 | Cc1noc(C)c1-c1cnc2c(c1)c(C1=CCC(C(=O)O)CC1)cn2Cc1ccccc1 (stereo not shown) [P-0093, 4-(1-benzyl-5-(3,5-dimethylisoxazol-4-yl)-1H-pyrrolo[2,3-b]pyridin-3-yl)cyclohex-3-ene-1-carboxylic acid] | 0.1 to 1000 nM
11 | Cc1noc(C)c1-c1cnc2c(c1)c(-c1c(F)cc(C(=O)O)cc1F)cn2C(C)c1ccccn1 (stereo not shown) [P-0094, 4-(5-(3,5-dimethylisoxazol-4-yl)-1-(1-(pyridin-2-yl)ethyl)-1H-pyrrolo[2,3-b]pyridin-3-yl)-3,5-difluorobenzoic acid] | 0.1 to 1000 nM
12 | Cc1noc(C)c1-c1cnc2c(c1)c(-c1c(Cl)cc(C(=O)O)cc1Cl)cn2C(C)c1ccccn1 (stereo not shown) [P-0095, 3,5-dichloro-4-(5-(3,5-dimethylisoxazol-4-yl)-1-(1-(pyridin-2-yl)ethyl)-1H-pyrrolo[2,3-b]pyridin-3-yl)benzoic acid] | 0.1 to 1000 nM
13 | Cc1noc(C)c1-c1cnc2c(c1)c(-c1c(F)ccc(NS(C)(=O)=O)c1F)cn2C(C)c1ccccn1 (stereo not shown) [P-0096, N-(3-(5-(3,5-dimethylisoxazol-4-yl)-1-(1-(pyridin-2-yl)ethyl)-1H-pyrrolo[2,3-b]pyridin-3-yl)-2,4-difluorophenyl)methanesulfonamide] | 0.1 to 1000 nM
